Assay results as given in US9102669B2, “Substituted piperidinyl-pyridazinyl derivatives useful as SCD 1 inhibitors” (Janssen Pharmaceutica NV, priority 2011, dated 2015).

How the values were obtained:
[1] = 4 week Zucker fa/fa rat study, body weight; assay type: in vivo; details: Zucker fa/fa rats
Method: Male Zucker fa/fa rats were housed one rat per cage in a temperature-controlled room with 12-hour light/dark cycle. The rats were fed on regular rodent diet (Purina 5008) and allowed ad libitum access to water. The experiment was initiated at an age of 8-9 week, and at body weight of about 350 g. Test compound was prepared in 0.5% HPMC for dosing q.d at 1 mg/kg, 3 mg/kg and 10 mg/kg, as noted in the table of results below. Body weight, food intake and fed blood glucose were monitored weekly. On day 26, all rats were given with the last dose 1 hr prior to the necropsy.

[2] = 10-day diet-induced obese C57bl/6 mice study, body weight change; assay type: in vivo, mouse; parameters: unit not given here; details: DIO C57BL/6J mice, oral 30 mg/kg once a day, after 10 days of treatment
Method: Male DIO C57BL/6J mice from Taconic were maintained on high fat diet D12492 containing 60% kCal of mostly saturated fats (Research Diets Inc.) for 4 week from 6-week old. Test compounds were prepared in 0.5% hydroxypropyl methyl cellulose for oral dosing at 30 mg/kg once a day. After 10-days of treatment, body weight change was recorded.
Representative compounds of the present invention were tested according to the procedure as described above, with results as listed in Table 7, below. In the results presented below, * indicates a calculated p value <0.05 vs. vehicle-treated group.

Cn1cc(-c2ccc(N3CCC(N4CCc5ccc(F)cc54)CC3)nn2)cn1 [Compound #11, 6-fluoro-1-(1-(6-(1-methyl-1H-pyrazol-4-yl)pyridazin-3-yl)piperidin-4-yl)indoline]
Body Weight Day 1 ([1]; 1 mg/kg q.d.): 373 ± 7 grams
Body Weight Day 8 ([1]; 1 mg/kg q.d.): 404 ± 13 grams
Body Weight Day 15 ([1]; 1 mg/kg q.d.): 442 ± 12 grams
Body Weight Day 22 ([1]; 1 mg/kg q.d.): 482 ± 10 grams
Body Weight Day 26 ([1]; 1 mg/kg q.d.): 496 ± 10 grams
Body Weight Day 1 ([1]; 3 mg/kg q.d.): 372 ± 6 grams
Body Weight Day 8 ([1]; 3 mg/kg q.d.): 417 ± 7 grams
Body Weight Day 15 ([1]; 3 mg/kg q.d.): 452 ± 6 grams
Body Weight Day 22 ([1]; 3 mg/kg q.d.): 484 ± 6 grams
Body Weight Day 26 ([1]; 3 mg/kg q.d.): 498 ± 6 grams
Body Weight Day 1 ([1]; 10 mg/kg q.d.): 373 ± 5 grams
Body Weight Day 8 ([1]; 10 mg/kg q.d.): 402 ± 6 grams
Body Weight Day 15 ([1]; 10 mg/kg q.d.): 430 ± 7 grams
Body Weight Day 22 ([1]; 10 mg/kg q.d.): 445 ± 9 grams
Body Weight Day 26 ([1]; 10 mg/kg q.d.): 451 ± 9 grams
body weight change [2]: −2.1 ± 0.3 *
